Measurements from patent US12409179B2 (GENEROS BIOPHARMA LTD., priority 2019, dated 2025).

Legend:
[1] = system: rat adjuvant-induced arthritis model; experiment: Embodiment 2: oral Nib1 and medium-dose methotrexate in rat adjuvant-induced arthritis model (joint score, paw volume, AUC); type: in vivo, Lewis rat; conditions: MTX 0.5 mpk, Nib1 5 mpk, Nib1 5 mpk + MTX 0.5 mpk; for Total area (AUC of changes in paw volume): Embodiment 2, Tofacitinib 5 mpk, in mL·day
[2] = system: adjuvant-induced arthritis in rats; experiment: Embodiment 3: oral Nib1 and methotrexate in adjuvant-induced arthritis in rats (joint score, paw volume, AUC); type: in vivo, Lewis rat; conditions: oral, Tofacitinib 5 mpk, MTX 0.05 mpk, Nib1 1 mpk, Nib1 1 mpk + MTX 0.05 mpk
rheumatoid arthritis = conditions: cited from earlier work

CN(Cc1cnc2nc(N)nc(N)c2n1)c1ccc(C(=O)N[C@@H](CCC(=O)O)C(=O)O)cc1 [MTX, Methotrexate]
Total area (AUC of changes in paw volume) [1]: 29.94
Clinical scoring of arthritis (sum of the scores of the quadrupedal joints), Average value ([1]; day 0, Tofacitinib 5 mpk): 0
paw volume (right hind foot), Average value ([1]; day 0, Tofacitinib 5 mpk): 1.02 mL
Clinical scoring of arthritis (sum of the scores of the quadrupedal joints), Average value ([1]; day 7, Tofacitinib 5 mpk): 0.75
paw volume (right hind foot), Average value ([1]; day 7, Tofacitinib 5 mpk): 1.98 mL
Clinical scoring of arthritis (sum of the scores of the quadrupedal joints), Average value ([1]; day 13, Tofacitinib 5 mpk): 1.75
paw volume (right hind foot), Average value ([1]; day 13, Tofacitinib 5 mpk): 2.10 mL
Clinical scoring of arthritis (sum of the scores of the quadrupedal joints), Average value ([1]; day 15, Tofacitinib 5 mpk): 5.50
paw volume (right hind foot), Average value ([1]; day 15, Tofacitinib 5 mpk): 2.28 mL
Clinical scoring of arthritis (sum of the scores of the quadrupedal joints), Average value ([1]; day 17, Tofacitinib 5 mpk): 7.00
paw volume (right hind foot), Average value ([1]; day 17, Tofacitinib 5 mpk): 2.43 mL
Clinical scoring of arthritis (sum of the scores of the quadrupedal joints), Average value ([1]; day 20, Tofacitinib 5 mpk): 7.50
paw volume (right hind foot), Average value ([1]; day 20, Tofacitinib 5 mpk): 2.48 mL
Clinical scoring of arthritis (sum of the scores of the quadrupedal joints), Average value ([1]; day 22, Tofacitinib 5 mpk): 7.63
paw volume (right hind foot), Average value ([1]; day 22, Tofacitinib 5 mpk): 2.50 mL
Clinical scoring of arthritis (sum of the scores of the quadrupedal joints), Average value ([1]; day 24, Tofacitinib 5 mpk): 7.63
paw volume (right hind foot), Average value ([1]; day 24, Tofacitinib 5 mpk): 2.56 mL
Clinical scoring of arthritis (sum of the scores of the quadrupedal joints), Average value ([1]; day 27, Tofacitinib 5 mpk): 7.50
paw volume (right hind foot), Average value ([1]; day 27, Tofacitinib 5 mpk): 2.62 mL
Clinical scoring of arthritis (sum of the scores of the quadrupedal joints), Average value ([1]; day 29, Tofacitinib 5 mpk): 7.63
paw volume (right hind foot), Average value ([1]; day 29, Tofacitinib 5 mpk): 2.65 mL
Clinical scoring of arthritis (sum of the scores of the quadrupedal joints), Average value ([1]; day 31, Tofacitinib 5 mpk): 7.63
paw volume (right hind foot), Average value ([1]; day 31, Tofacitinib 5 mpk): 2.66 mL
Clinical scoring of arthritis (sum of the scores of the quadrupedal joints), Average value ([1]; day 34, Tofacitinib 5 mpk): 7.50
paw volume (right hind foot), Average value ([1]; day 34, Tofacitinib 5 mpk): 1.02 mL
Area under the curve AUC (ml*day) of changes in paw volume ([2]; Embodiment 3): 19.31 mL·days
Clinical scoring of arthritis (sum of the scores of the quadrupedal joints), Average value ([2]; day 0): 0.00
volume of the right hind foot, Average value ([2]; day 0): 1.30 mL
Clinical scoring of arthritis (sum of the scores of the quadrupedal joints), Average value ([2]; day 8): 0.44
volume of the right hind foot, Average value ([2]; day 8): 1.38 mL
Clinical scoring of arthritis (sum of the scores of the quadrupedal joints), Average value ([2]; day 11): 4.33
volume of the right hind foot, Average value ([2]; day 11): 2.14 mL
Clinical scoring of arthritis (sum of the scores of the quadrupedal joints), Average value ([2]; day 13): 7.33
Clinical scoring of arthritis (sum of the scores of the quadrupedal joints), Average value ([2]; day 15): 9.00
volume of the right hind foot, Average value ([2]; day 15): 2.88 mL
Clinical scoring of arthritis (sum of the scores of the quadrupedal joints), Average value ([2]; day 18): 10.22
volume of the right hind foot, Average value ([2]; day 18): 3.14 mL
Clinical scoring of arthritis (sum of the scores of the quadrupedal joints), Average value ([2]; day 21): 10.78
Clinical scoring of arthritis (sum of the scores of the quadrupedal joints), Average value ([2]; day 24): 10.89
main side effects (rheumatoid arthritis; rheumatoid arthritis therapy): liver and gastrointestinal toxicity
patients who stop taking the drug because of side effects (rheumatoid arthritis; within a year): about 50%

C[C@@H]1CCN(C(=O)CC#N)C[C@@H]1N(C)c1ncnc2[nH]ccc12 [Tofacitinib]
Relative to G2 percentage (%) (AUC of changes in paw volume) ([1]; Embodiment 2, G2 = Vehicle, Tofacitinib 5 mpk): 44.3%
Total area (AUC of changes in paw volume) [1]: 16.61
Clinical scoring of arthritis (sum of the scores of the quadrupedal joints), Average value ([1]; day 0, Tofacitinib 5 mpk): 0
paw volume (right hind foot), Average value ([1]; day 0, Tofacitinib 5 mpk): 1.01 mL
Clinical scoring of arthritis (sum of the scores of the quadrupedal joints), Average value ([1]; day 7, Tofacitinib 5 mpk): 0.50
paw volume (right hind foot), Average value ([1]; day 7, Tofacitinib 5 mpk): 1.57 mL
Clinical scoring of arthritis (sum of the scores of the quadrupedal joints), Average value ([1]; day 13, Tofacitinib 5 mpk): 1.38
paw volume (right hind foot), Average value ([1]; day 13, Tofacitinib 5 mpk): 1.80 mL
Clinical scoring of arthritis (sum of the scores of the quadrupedal joints), Average value ([1]; day 15, Tofacitinib 5 mpk): 3.50
paw volume (right hind foot), Average value ([1]; day 15, Tofacitinib 5 mpk): 1.81 mL
Clinical scoring of arthritis (sum of the scores of the quadrupedal joints), Average value ([1]; day 17, Tofacitinib 5 mpk): 4.88
paw volume (right hind foot), Average value ([1]; day 17, Tofacitinib 5 mpk): 1.85 mL
Clinical scoring of arthritis (sum of the scores of the quadrupedal joints), Average value ([1]; day 20, Tofacitinib 5 mpk): 5.13
paw volume (right hind foot), Average value ([1]; day 20, Tofacitinib 5 mpk): 1.90 mL
Clinical scoring of arthritis (sum of the scores of the quadrupedal joints), Average value ([1]; day 22, Tofacitinib 5 mpk): 5.25
paw volume (right hind foot), Average value ([1]; day 22, Tofacitinib 5 mpk): 1.89 mL
Clinical scoring of arthritis (sum of the scores of the quadrupedal joints), Average value ([1]; day 24, Tofacitinib 5 mpk): 4.75
paw volume (right hind foot), Average value ([1]; day 24, Tofacitinib 5 mpk): 1.81 mL
Clinical scoring of arthritis (sum of the scores of the quadrupedal joints), Average value ([1]; day 27, Tofacitinib 5 mpk): 4.50
paw volume (right hind foot), Average value ([1]; day 27, Tofacitinib 5 mpk): 1.76 mL
Clinical scoring of arthritis (sum of the scores of the quadrupedal joints), Average value ([1]; day 29, Tofacitinib 5 mpk): 4.38
paw volume (right hind foot), Average value ([1]; day 29, Tofacitinib 5 mpk): 1.74 mL
Clinical scoring of arthritis (sum of the scores of the quadrupedal joints), Average value ([1]; day 31, Tofacitinib 5 mpk): 4.38
paw volume (right hind foot), Average value ([1]; day 31, Tofacitinib 5 mpk): 1.71 mL
Clinical scoring of arthritis (sum of the scores of the quadrupedal joints), Average value ([1]; day 34, Tofacitinib 5 mpk): 4.25
paw volume (right hind foot), Average value ([1]; day 34, Tofacitinib 5 mpk): 1.01 mL
Relative to G2 percentage (%) (AUC of changes in paw volume) ([2]; Embodiment 3, G2 = Vehicle): 59.2%
Area under the curve AUC (ml*day) of changes in paw volume ([2]; Embodiment 3): 11.27 mL·days
Clinical scoring of arthritis (sum of the scores of the quadrupedal joints), Average value ([2]; day 0): 0.00
volume of the right hind foot, Average value ([2]; day 0): 1.31 mL
Clinical scoring of arthritis (sum of the scores of the quadrupedal joints), Average value ([2]; day 8): 0.33
volume of the right hind foot, Average value ([2]; day 8): 1.40 mL
Clinical scoring of arthritis (sum of the scores of the quadrupedal joints), Average value ([2]; day 11): 2.67
volume of the right hind foot, Average value ([2]; day 11): 1.76 mL
Clinical scoring of arthritis (sum of the scores of the quadrupedal joints), Average value ([2]; day 13): 4.33
Clinical scoring of arthritis (sum of the scores of the quadrupedal joints), Average value ([2]; day 15): 5.67
volume of the right hind foot, Average value ([2]; day 15): 2.27 mL
Clinical scoring of arthritis (sum of the scores of the quadrupedal joints), Average value ([2]; day 18): 6.33
volume of the right hind foot, Average value ([2]; day 18): 2.40 mL
Clinical scoring of arthritis (sum of the scores of the quadrupedal joints), Average value ([2]; day 21): 6.22
volume of the right hind foot, Average value ([2]; day 22): 2.52 mL
Clinical scoring of arthritis (sum of the scores of the quadrupedal joints), Average value ([2]; day 24): 5.33
